Assay [1] concerns UTP-stimulated Ca2+ response in HT-29 cells. The experiment in a line: Ca FLIPR TETRA assay, ANTAGONIST mode, stimulation with 0.6 μM UTP. In kind it is cell-based, human. The following applies: Homo sapiens; HT-29 cells, antagonist mode, stimulation with 0.6 μM UTP. In outline:
(§1)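 Intracellular calcium is measured by fluorescence in HT-29 cells loaded with calcium 5 reagent. Compounds sit on the cells 30 min at room temperature before challenge with trypsin (3.1 U/mL) or SLIGKV (8 μM) for PAR2, or with thrombin (1 U/mL) or UTP (0.6 μM) as counter-stimuli.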

For assay [2], the target named is T1, PAR2 (HT-29 cells, trypsin activation) (Homo sapiens, UniProt P55085).
T1 construct: host or cells: HT-29 cells
T1 sequence (P55085 26-397): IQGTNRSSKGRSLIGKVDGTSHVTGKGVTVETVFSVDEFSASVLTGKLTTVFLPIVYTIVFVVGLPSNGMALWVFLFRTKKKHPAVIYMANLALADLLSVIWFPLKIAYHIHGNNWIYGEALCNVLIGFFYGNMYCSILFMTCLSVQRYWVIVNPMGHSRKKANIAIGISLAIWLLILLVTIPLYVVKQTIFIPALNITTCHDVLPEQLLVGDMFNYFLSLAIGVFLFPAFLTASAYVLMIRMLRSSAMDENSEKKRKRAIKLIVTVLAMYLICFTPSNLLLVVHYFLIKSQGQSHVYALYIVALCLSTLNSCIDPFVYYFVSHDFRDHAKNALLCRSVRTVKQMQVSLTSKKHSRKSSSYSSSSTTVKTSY
The experiment in a line: Ca FLIPR TETRA assay, ANTAGONIST mode, stimulation with 3.1 U/mL trypsin. In kind it is cell-based. Particulars: HT-29 cells, antagonist mode, stimulation with 3.1 U/mL trypsin. In outline:
as §1

In assay [3] the test system is Thrombin-stimulated Ca2+ response in HT-29 cells. The experiment in a line: Ca FLIPR TETRA assay, ANTAGONIST mode, stimulation with 1 U/mL Thrombin. In kind it is cell-based, human. Particulars: Homo sapiens; HT-29 cells, antagonist mode, stimulation with 1 U/mL Thrombin. Summed up: as §1
Assay [4] concerns the target T2, PAR2 (HT-29 cells, SLIGKV activation) (Homo sapiens, UniProt P55085).
T2 construct: host or cells: HT-29 cells
T2 sequence (P55085 26-397): T1 sequence (P55085 26-397)
The experiment in a line: Ca FLIPR TETRA assay, ANTAGONIST mode, stimulation with 8 μM SLIGKV. In kind it is cell-based. Particulars: HT-29 cells, antagonist mode, stimulation with 8 μM SLIGKV. Summed up:
as §1

Molecules are shown by their SMILES.

This note sets out measurements from patent US20190119282A1, “IMIDAZOPYRIDAZINES USEFUL AS INHIBITORS OF THE PAR-2 SIGNALING PATHWAY” (Vertex Pharmaceuticals Incorporated, priority 2013, published 2019).

In general, IC50 refers to the concentration needed to halve the response being measured.

With `CC(C)(C)c1cc(-c2ccc(F)c(Cl)c2)nn2cc(C(=O)N3CCN(C(=O)C4CC(C(=O)O)C4)CC3(C)C)nc12` (centres unmarked) [Compound I-486], the IC50 in assay [1] is 2180 nM; in assay [2], 2.1 nM; in assay [3], 4150 nM; in assay [4] it was 1.7 nM.
For `CC(C)(C)c1cc(-c2ccc(F)c(Cl)c2)nn2cc(C(=O)N3CCN(C(=O)[C@H]4CC[C@@H](C(=O)O)CC4)CC3(C)C)nc12` [Compound I-487], in that order: > 1000 nM, 0.3 nM, > 1000 nM and 0.3 nM.
On the same counts, the results for `CC(C)(C)c1cc(-c2ccc(F)c(Cl)c2)nn2cc(C(=O)N3CCN(C(=O)[C@H]4CC[C@H](C(=O)O)CC4)CC3(C)C)nc12` [Compound I-488] are > 1000 nM, 4.2 nM, > 1000 nM and 4.2 nM.
On the same counts, the results for `CC(C)(C)c1cc(-c2ccc(Cl)cc2)nn2cc(C(=O)N3CCN(C(=O)C4CC(C(=O)O)C4)CC3(C)C)nc12` (centres unmarked) [Compound I-489] are 4100 nM, 0.9 nM, 8600 nM and 1 nM.
Take `CC(C)(C)c1cc(-c2ccc(Cl)cc2)nn2cc(C(=O)N3CCN(C(=O)[C@H]4CC[C@@H](C(=O)O)CC4)CC3(C)C)nc12` [Compound I-490]: the IC50 in assay [1] is > 1000 nM; in assay [2], 0.2 nM; in assay [3], > 1000 nM; in assay [4], 0.1 nM.
As to `CC(C)(C)c1cc(-c2ccc(Cl)cc2)nn2cc(C(=O)N3CCN(C(=O)[C@H]4CC[C@H](C(=O)O)CC4)CC3(C)C)nc12` [Compound I-491], the IC50 in assay [1] is > 1000 nM; in assay [2] it was 3.2 nM; in assay [3], > 1000 nM; in assay [4], 2.4 nM.
As to `CC(C)(C)c1cc(-c2ccc(F)cc2)nn2cc(C(=O)N3CCN(C(=O)C4CC(C(=O)O)C4)CC3(C)C)nc12` (centres unmarked) [Compound I-492], the IC50 in assay [1] turned out to be 690 nM; in assay [2], 5.6 nM; in assay [3], 820 nM; in assay [4] it was 4 nM.
With `CC(C)(C)c1cc(-c2ccc(F)cc2)nn2cc(C(=O)N3CCN(C(=O)[C@H]4CC[C@@H](C(=O)O)CC4)CC3(C)C)nc12` [Compound I-493, (1S,4S)-4-(4-(8-(tert-butyl)-6-(4-fluorophenyl)imidazo[1,2-b]pyridazine-2-carbonyl)-3,3-dimethylpiperazine-1-carbonyl)cyclohexane-1-carboxylic acid], the IC50 in assay [1] was 440 nM; in assay [2], 0.5 nM; in assay [3] it was 760 nM; in assay [4], 0.5 nM.
As for `CC(C)(C)c1cc(-c2ccc(F)cc2)nn2cc(C(=O)N3CCN(C(=O)[C@H]4CC[C@H](C(=O)O)CC4)CC3(C)C)nc12` [Compound I-494, (1R,4R)-4-(4-(8-(tert-butyl)-6-(4-fluorophenyl)imidazo[1,2-b]pyridazine-2-carbonyl)-3,3-dimethylpiperazine-1-carbonyl)cyclohexane-1-carboxylic acid], the concentration for half-maximal inhibition (IC50) is > 1000 nM in assay [1], 13.9 nM in assay [2], > 1000 nM in assay [3] and 12.4 nM in assay [4].
On to `CC(C)c1cc(-c2ccc(F)c(Cl)c2)nn2cc(C(=O)N3CCN(C(=O)[C@H]4CC[C@@H](C(=O)O)CC4)CC3(C)C)nc12` [Compound I-495], for which the IC50 is 11100 nM in assay [1], 5 nM in assay [2], 21500 nM in assay [3] and 4.1 nM in assay [4].
On the same counts, the results for `CC(C)c1cc(-c2ccc(F)c(Cl)c2)nn2cc(C(=O)N3CCN(C(=O)[C@H]4CC[C@H](C(=O)O)CC4)CC3(C)C)nc12` [Compound I-496] are > 1000 nM, 101 nM, > 1000 nM and 55.3 nM.
On the same counts, the results for `CC(C)c1cc(-c2ccc(F)c(Cl)c2)nn2cc(C(=O)N3CCNCC3(C)C)nc12` [Compound I-497] are > 1000 nM, 270 nM, > 1000 nM and 405 nM.
On the same counts, the results for `CC(C)c1cc(-c2ccc(F)c(Cl)c2)nn2cc(C(=O)N3CCN(C(=O)[C@H]4C[C@@H](O)C4)CC3(C)C)nc12` [Compound I-498] are > 1000 nM, 7.4 nM, > 1000 nM and 5.6 nM.
In the case of `COC1CC(C(=O)N2CCN(C(=O)c3cn4nc(-c5ccc(F)c(Cl)c5)cc(C(C)C)c4n3)C(C)(C)C2)C1` (centres unmarked) [Compound I-499], the IC50 in assay [1] was > 1000 nM; in assay [2], 9.6 nM; in assay [3], > 1000 nM; in assay [4] it was 8.3 nM.
For `CC(C)c1cc(-c2ccc(F)c(Cl)c2)nn2cc(C(=O)N3CCN(C(=O)[C@H]4C[C@](O)(C(F)(F)F)C4)CC3(C)C)nc12` [Compound I-500], the IC50 in assay [1] was > 1000 nM; in assay [2], 0.4 nM; in assay [3], > 1000 nM; in assay [4], 0.3 nM.
On to `CC(C)c1cc(-c2ccc(F)c(Cl)c2)nn2cc(C(=O)N3CCN(C(=O)[C@H]4C[C@H](C(=O)O)C4)CC3(C)C)nc12` [Compound I-501], for which the IC50 in assay [1] was > 1000 nM; in assay [2] it was 59.5 nM; in assay [3] it was > 1000 nM; in assay [4] it was 51 nM.
`CC(C)c1cc(-c2ccc(F)c(Cl)c2)nn2cc(C(=O)N3CCN(C(=O)[C@H]4C[C@@H](C(=O)O)C4)CC3(C)C)nc12` [Compound I-502]: the IC50 was > 1000 nM in assay [1], 20 nM in assay [2], > 1000 nM in assay [3] and 21 nM in assay [4].
With `COC(=O)CN1CCN(C(=O)c2cn3nc(-c4ccc(F)cc4)cc(C(C)(C)C)c3n2)C(C)(C)C1=O` [Compound I-503], the IC50 was > 1000 nM in assay [1], 4.6 nM in assay [2], > 1000 nM in assay [3] and 3.9 nM in assay [4].
On to `Cc1nc(C(=O)N2CCN(C(=O)c3cn4nc(-c5ccc(F)c(Br)c5)cc(C(C)(C)C)c4n3)C(C)(C)C2)n[nH]1` [Compound I-504], for which the IC50 was 460 nM in assay [1], 1.5 nM in assay [2], > 1000 nM in assay [3] and 1.2 nM in assay [4].
As for `CC(C)c1cc(-c2ccc(F)c(Cl)c2)nn2cc(C(=O)N3CCN(C(=O)[C@H]4C[C@H](O)C4)CC3(C)C)nc12` [Compound I-505], the IC50 in assay [1] is > 1000 nM; in assay [2], 23 nM; in assay [3], > 1000 nM; in assay [4] it was 12 nM.
On to `CC(C)(C)c1cc(C2CCC(F)(F)CC2)nn2cc(C(=O)N3CCN(C(=O)[C@H]4CC[C@H](C(=O)O)CC4)CC3(C)C)nc12` [Compound I-506], for which the 50% inhibitory concentration (IC50) in assay [1] was > 1000 nM; in assay [2], 163 nM; in assay [3], > 1000 nM; in assay [4], 107 nM.
In the case of `Cc1cc(-c2cc(C(C)C)c3nc(C(=O)N4CCNC(=O)C4(C)C)cn3n2)ccc1Cl` [Compound I-507], the IC50 was > 1000 nM in assay [1], 4.9 nM in assay [2], > 1000 nM in assay [3] and 3.1 nM in assay [4].
On to `Cc1ccc(-c2cc(C(C)C)c3nc(C(=O)N4CCNC(=O)C4(C)C)cn3n2)cc1Cl` [Compound I-508], for which the IC50 in assay [1] was > 1000 nM; in assay [2], 4.1 nM; in assay [3], > 1000 nM; in assay [4], 4.7 nM.
`COC(=O)CC1(C)C(=O)NCCN1C(=O)c1cn2nc(-c3ccc(F)cc3)cc(C(C)(C)C)c2n1` (centres unmarked) [Compound I-509]: the IC50 in assay [1] is > 1000 nM; in assay [2], 170 nM; in assay [3] it was > 1000 nM; in assay [4], 82.5 nM.
As to `CC(C)(C)c1cc(-c2ccc(F)cc2)nn2cc(C(=O)N3CCOC(=O)C3(C)C)nc12` [Compound I-510], the IC50 in assay [1] is > 1000 nM; in assay [2], 8.8 nM; in assay [3] it was > 1000 nM; in assay [4] it was 6.8 nM.
As for `CC(C)c1cc(-c2ccc(F)cc2)nn2cc(C(=O)N3CCOC(=O)C3(C)C)nc12` [Compound I-511], the IC50 in assay [1] was > 1000 nM; in assay [2], 87 nM; in assay [3], > 1000 nM; in assay [4] it was 23 nM.
In the case of `CC(=O)N1CCN(C(=O)c2cn3nc(-c4ccc(F)cc4)cc(C(C)C)c3n2)C(C)(C)C1` [Compound I-512], the IC50 in assay [1] was > 1000 nM; in assay [2] it was 53 nM; in assay [3], > 1000 nM; in assay [4] it was 23.5 nM.
Regarding `CC(=O)N1CCN(C(=O)c2cn3nc(-c4ccc(F)cc4)cc(C(C)(C)C)c3n2)C(C)(C)C1` [Compound I-513], the half-maximal inhibitory concentration (IC50) in assay [1] is > 1000 nM; in assay [2], 3 nM; in assay [3], > 1000 nM; in assay [4], 1.8 nM.
For the molecule `CC1(C)C(=O)OCCN1C(=O)c1cn2nc(-c3ccc(F)cc3)cc(C(F)(F)F)c2n1` [Compound I-514], the IC50 in assay [1] was > 1000 nM; in assay [2], 315 nM; in assay [3] it was > 1000 nM; in assay [4] it was 160 nM.
